Experimental findings from patent US20100034832A1, “METHODS FOR MANIPULATING STEM CELLS” (THE GENERAL HOSPITAL CORPORATION, priority 2006, published 2010) are described below.

Read-outs that look alike come from different tables or passages of the source.

The subject of one data set is PB leucocyte count. The experiment in a line: 5-fluorouracil (5FU) BM injury model, PB counts. The format is in vivo, mouse. The note with it: single 150 mg/kg 5FU intraperitoneally. Here is the method:
Similar results were obtained when mice were subjected to BM injury using 5-fluorouracil (5FU) (data not shown). In the 5FU injury model, 150 mg/kg mouse weight 5FU was injected intraperitoneally at day 0 PB was obtained through tail vein bleeding for analysis weekly starting day 0 (n=10 per group).
Next, we examined the role of P2Y14 in long-term hematopoietic recovery from BM injury. The mice were subjected to a single injection of 5FU and followed the peripheral blood (PB) leucocyte counts as well as PB granulocyte, B cell and T cell content by flow cytometry.
Med. 6, 1235-1240 (2000).

The test system of data set [1] is immature HSC fraction of the BM. Conditions: 200 mg/kg CTX intraperitoneally, day 4.
Method: In the CIX injury model, either sterile PBS or CTX at final concentration of 200 mg/kg mouse weight was injected intraperitoneally. At day 4 after injection, mice were euthanized and BM was obtained from femurs and tibiae of each mouse (n=5 per group).
Apoptosis was measured by AnnexinV and 7AAD staining as previously described Cheng, T. et al. Nat. Med. 6, 1235-1240 (2000).

With `O=c1[nH]cc(F)c(=O)[nH]1` [5FU, 5-fluorouracil], in the data set on PB leucocyte count (P2Y14-/- mice), the “persistence of greater than normal granulocyte (Gr-1+) count rebound” value is “up to 9 weeks”. In addition, in the data set on PB leucocyte count (both -/- and +/+ mice), the “nadir of total PB leucocyte count” value stood at 7 days, the “peak of rebound leucocytosis” value is 14 days and the “return to baseline leucocyte count” value is on record as 3-4 weeks post-injection.

As for `O=P1(N(CCCl)CCCl)NCCCO1` (stereo not shown) [CTX, cyclophosphamide], the “immature HSC fraction of the BM (% LKS+, % CD34lo/-LKS+)” value in data set [1] (P2Y14-/- mice) is listed as “loss of enrichment for immature HSC fraction”; in data set [1] (wildtype mice), “enrichment of immature HSC fraction”. For the same compound, the “apoptosis in the immature HSC fraction” value in data set [1] (P2Y14-/- mice, AnnexinV and 7AAD) is given as “increased apoptosis”.
